In ChEMBL document CHEMBL5143690, “Identification of nitrofuranylchalcone tethered benzoxazole-2-amines as potent inhibitors of drug resistant Mycobacterium tuberculosis demonstrating bactericidal efficacy” (Bioorg Med Chem, 2022):
In brackets after ≈: the same amount, converted by molar mass. Activity calls are given as the source filed them. The calls are words filed in the database; no cut-off is given here.

Legend:
[1] = system: Mycobacterium tuberculosis; test: Antimycobacterial activity against Mycobacterium tuberculosis H37Rv ATCC 27294 assessed as inhibition of bacterial growth measured after 7 days by resazurin microtitre assay; format: functional; conditions: H37Rv ATCC 27294, 168 h, time 7 day
[2] = system: Escherichia coli; test: Antibacterial activity against Escherichia coli ATCC 25922 assessed as reduction in bacterial growth incubated for 16 to 18 hrs by microtiter plate assay; format: functional; conditions: time 16-18 hrs
[3] = Selectivity index, ratio of CC50 for African green monkey Vero cells to MIC for Mycobacterium tuberculosis H37Rv ATCC 27294; format: toxicity; conditions: read-out: Selectivity Index
[4] = system: Acinetobacter baumannii; test: Antibacterial activity against Acinetobacter baumannii BAA 1605 assessed as reduction in bacterial growth incubated for 16 to 18 hrs by microtiter plate assay; format: functional; conditions: time 16-18 hrs
[5] = system: Mycolicibacterium fortuitum; test: Antimycobacterial activity against Mycobacterium fortuitum ATCC 6841 assessed as inhibition of bacterial growth after 48 hrs by resazurin microtitre assay; format: functional
[6] = system: Staphylococcus aureus; test: Antibacterial activity against Staphylococcus aureus ATCC 29213 assessed as reduction in bacterial growth incubated for 16 to 18 hrs by microtiter plate assay; format: functional; conditions: time 16-18 hrs
[7] = system: Klebsiella pneumoniae; test: Antibacterial activity against Klebsiella pneumoniae BAA 1705 assessed as reduction in bacterial growth incubated for 16 to 18 hrs by microtiter plate assay; format: functional; conditions: time 16-18 hrs
[8] = system: Mycobacteroides chelonae; test: Antimycobacterial activity against Mycobacterium chelonae ATCC 6841 assessed as inhibition of bacterial growth after 48 hrs by resazurin microtitre assay; format: functional
[9] = system: Pseudomonas aeruginosa; test: Antibacterial activity against Pseudomonas aeruginosa ATCC 27853 assessed as reduction in bacterial growth incubated for 16 to 18 hrs by microtiter plate assay; format: functional; conditions: time 16-18 hrs
[10] = system: Mycobacteroides abscessus; test: Antimycobacterial activity against Mycobacterium abscessus ATCC 19977 assessed as inhibition of bacterial growth after 48 hrs by resazurin microtitre assay; format: functional
[11] = Cytotoxicity against African green monkey Vero cells assessed as reduction in cell viability measured after 72 hrs by MTT assay; format: toxicity, cell-based; conditions: chlorocebus sabaeus
[12] = system: Mycobacterium tuberculosis; test: Antimycobacterial activity against Mycobacterium tuberculosis H37Rv assessed as reduction in log10CFU at 1XMIC measured after 5 to 6 days by time kill assay; format: functional, organism-based; conditions: time 5-6 day
[13] = system: Mycobacterium tuberculosis; test: Antimycobacterial activity against Mycobacterium tuberculosis H37Rv assessed as reduction in log10CFU at 10 X MIC measured after 5 to 6 days by time kill assay; format: functional, organism-based; conditions: time 5-6 day

| SMILES | MIC [1] | MIC [2] | selectivity ratio [3] | MIC [4] | MIC [5] | MIC [6] | MIC [7] | MIC [8] | MIC [9] | MIC [10] | CC50 at 72 h [11] | Activity [12] | Activity [13] |
| --- | --- | --- | --- | --- | --- | --- | --- | --- | --- | --- | --- | --- | --- |
| Cc1ccc2oc(Nc3ccc(C(=O)/C=C/c4ccc([N+](=O)[O-])o4)cc3)nc2c1 | 0.06 µg/mL (≈ 0.154 µM) | > 64 µg/mL | 80 | > 64 µg/mL | > 64 µg/mL | 4 µg/mL (≈ 10.3 µM) | > 64 µg/mL | > 64 µg/mL | > 64 µg/mL | > 64 µg/mL | 5 µg/mL (≈ 12.8 µM) |  |  |
| O=C(/C=C/c1ccc([N+](=O)[O-])o1)c1ccc(Nc2nc3ccccc3o2)cc1 | 0.12 µg/mL (≈ 0.32 µM) | > 64 µg/mL | 40 | > 64 µg/mL | > 64 µg/mL | 4 µg/mL (≈ 10.7 µM) | > 64 µg/mL | > 64 µg/mL | > 64 µg/mL | > 64 µg/mL | 5 µg/mL (≈ 13.3 µM) | Active | Active |
| CC(C)(C)c1ccc2oc(Nc3ccc(C(=O)/C=C/c4ccc([N+](=O)[O-])o4)cc3)nc2c1 | 0.5 µg/mL (≈ 1.16 µM) | > 64 µg/mL | < 10 | > 64 µg/mL | > 64 µg/mL | 8 µg/mL (≈ 18.5 µM) | > 64 µg/mL | > 64 µg/mL | > 64 µg/mL | > 64 µg/mL | 5 µg/mL (≈ 11.6 µM) |  |  |
| CO[C@H]1/C=C/O[C@@]2(C)Oc3c(C)c(O)c4c(O)c(c(/C=N/N5CCN(C)CC5)c(O)c4c3C2=O)NC(=O)/C(C)=C\C=C\[C@H](C)[C@H](O)[C@@H](C)[C@@H](O)[C@@H](C)[C@H](OC(C)=O)[C@@H]1C [RIFAMPIN] | 0.03 µg/mL (≈ 0.0365 µM) |  |  |  |  |  |  |  |  |  |  | Active | Active |
| O=C(/C=C/c1ccccc1F)c1ccc(Nc2nc3ccccc3o2)cc1 | > 64 µg/mL | > 64 µg/mL |  | > 64 µg/mL | > 64 µg/mL | > 64 µg/mL | > 64 µg/mL | > 64 µg/mL | > 64 µg/mL | > 64 µg/mL |  |  |  |
| COc1ccc(C(=O)/C=C/c2ccc([N+](=O)[O-])o2)cc1Nc1nc2ccccc2o1 | 0.25 µg/mL (≈ 0.617 µM) | > 64 µg/mL | < 10 | > 64 µg/mL | > 64 µg/mL | 8 µg/mL (≈ 19.7 µM) | > 64 µg/mL | > 64 µg/mL | > 64 µg/mL | > 64 µg/mL | 5 µg/mL (≈ 12.3 µM) |  |  |
| COc1cc(/C=C/C(=O)c2cccc(Nc3nc4ccccc4o3)c2)cc(OC)c1OC | 8 µg/mL (≈ 18.6 µM) | > 64 µg/mL |  | > 64 µg/mL | > 64 µg/mL | > 64 µg/mL | > 64 µg/mL | > 64 µg/mL | > 64 µg/mL | > 64 µg/mL |  |  |  |
| COc1cc(/C=C/C(=O)c2ccc(Nc3nc4cc(C(C)(C)C)ccc4o3)cc2)cc(OC)c1OC | 32 µg/mL (≈ 65.8 µM) | > 64 µg/mL |  | > 64 µg/mL | > 64 µg/mL | > 64 µg/mL | > 64 µg/mL | > 64 µg/mL | > 64 µg/mL | > 64 µg/mL |  |  |  |
| O=C(/C=C/c1cccc([N+](=O)[O-])c1)c1ccc(Nc2nc3ccccc3o2)cc1 | > 64 µg/mL | > 64 µg/mL |  | > 64 µg/mL | > 64 µg/mL | > 64 µg/mL | > 64 µg/mL | > 64 µg/mL | > 64 µg/mL | > 64 µg/mL |  |  |  |
| COc1ccc(OC)c(/C=C/C(=O)c2ccc(Nc3nc4ccccc4o3)cc2)c1 | > 64 µg/mL | > 64 µg/mL |  | > 64 µg/mL | > 64 µg/mL | > 64 µg/mL | > 64 µg/mL | > 64 µg/mL | > 64 µg/mL | > 64 µg/mL |  |  |  |
| COc1ccc(/C=C/C(=O)c2ccc(Nc3nc4ccccc4o3)cc2)c(OC)c1OC | 16 µg/mL (≈ 37.2 µM) | > 64 µg/mL |  | > 64 µg/mL | > 64 µg/mL | > 64 µg/mL | > 64 µg/mL | > 64 µg/mL | > 64 µg/mL | > 64 µg/mL |  |  |  |
| O=C(/C=C/c1ccncc1)c1ccc(Nc2nc3ccccc3o2)cc1 | 16 µg/mL (≈ 46.9 µM) | > 64 µg/mL |  | > 64 µg/mL | > 64 µg/mL | > 64 µg/mL | > 64 µg/mL | > 64 µg/mL | > 64 µg/mL | > 64 µg/mL |  |  |  |
| COc1cc(/C=C/C(=O)c2ccc(Nc3nc4cc([N+](=O)[O-])ccc4o3)cc2)cc(OC)c1OC | 16 µg/mL (≈ 33.7 µM) | > 64 µg/mL |  | > 64 µg/mL | > 64 µg/mL | > 64 µg/mL | > 64 µg/mL | > 64 µg/mL | > 64 µg/mL | > 64 µg/mL |  |  |  |
| O=C(/C=C/c1ccc([N+](=O)[O-])o1)c1cccc(Nc2nc3ccccc3o2)c1 | 0.06 µg/mL (≈ 0.16 µM) | > 64 µg/mL | 80 | > 64 µg/mL | > 64 µg/mL | 16 µg/mL (≈ 42.6 µM) | > 64 µg/mL | > 64 µg/mL | > 64 µg/mL | > 64 µg/mL | 5 µg/mL (≈ 13.3 µM) |  |  |
| O=C(/C=C/c1ccc(Br)cc1)c1ccc(Nc2nc3ccccc3o2)cc1 | 64 µg/mL (≈ 153 µM) | > 64 µg/mL |  | > 64 µg/mL | > 64 µg/mL | > 64 µg/mL | > 64 µg/mL | > 64 µg/mL | > 64 µg/mL | > 64 µg/mL |  |  |  |
| COc1cc(OC)c(OC)cc1/C=C/C(=O)c1ccc(Nc2nc3ccccc3o2)cc1 | 16 µg/mL (≈ 37.2 µM) | > 64 µg/mL |  | > 64 µg/mL | > 64 µg/mL | > 64 µg/mL | > 64 µg/mL | > 64 µg/mL | > 64 µg/mL | > 64 µg/mL |  |  |  |
| O=C(O)c1ccc(/C=C/C(=O)c2ccc(Nc3nc4ccccc4o3)cc2)cc1 | > 64 µg/mL | > 64 µg/mL |  | > 64 µg/mL | > 64 µg/mL | > 64 µg/mL | > 64 µg/mL | > 64 µg/mL | > 64 µg/mL | > 64 µg/mL |  |  |  |
| O=C(/C=C/c1ccc(Cl)cc1)c1ccc(Nc2nc3ccccc3o2)cc1 | 64 µg/mL (≈ 171 µM) | > 64 µg/mL |  | > 64 µg/mL | > 64 µg/mL | > 64 µg/mL | > 64 µg/mL | > 64 µg/mL | > 64 µg/mL | > 64 µg/mL |  |  |  |
| O=C(/C=C/c1ccc([N+](=O)[O-])cc1)c1ccc(Nc2nc3ccccc3o2)cc1 | 32 µg/mL (≈ 83 µM) | > 64 µg/mL |  | > 64 µg/mL | > 64 µg/mL | > 64 µg/mL | > 64 µg/mL | > 64 µg/mL | > 64 µg/mL | > 64 µg/mL |  |  |  |
| CN(C)c1ccc(/C=C/C(=O)c2ccc(Nc3nc4ccccc4o3)cc2)cc1 | 64 µg/mL (≈ 167 µM) | > 64 µg/mL |  | > 64 µg/mL | > 64 µg/mL | > 64 µg/mL | > 64 µg/mL | > 64 µg/mL | > 64 µg/mL | > 64 µg/mL |  |  |  |
